Laboratory results published in patent US20170266289A1, “TOPICAL FORMULATION” (AbbVie Inc., priority 2014, published 2017).
Values joined by “and” are separate entries in the source; they are usually repeats but may differ in a detail not shown here. Identical values can stand only once. Like-named read-outs stand apart in the source and are kept apart here. Values belong to the molecule of their own block, whether it stands above or below them.

Legend:
[1] = test system: FITC-induced contact hypersensitivity (CHS); test: Prophylactic topical treatment of FITC-induced contact hypersensitivity, ear skin thickness; format: in vivo, mice; settings: 1 hr prior to FITC challenge
Excerpt: Contact hypersensitivity (CHS) is an immunological response against a small chemical hapten. During the sensitization phase, dermal dendritic cells (DCs) and Langerhans cells take up the hapten peptide conjugate and process it and migrate to the draining lymph node, where they present the antigen (Ag) to naive T cells, leading to the formation of Ag-specific memory T cells. Subsequent contact with the same chemical results in the activation of memory T cells and the recruitment of inflammatory cells to the site of allergen exposure. This elicitation response is manifested as skin inflammation, which in a clinical context is called allergic contact dermatitis. One of the small chemical haptens is FITC. FITC-induced CHS is believed to be predominantly associated with the activation of Th2 cells. Upon challenging the skin with FITC in mice sensitized with FITC, it is believed that FITC-specific T cells are recruited to the skin and produce Th2 cytokines, including IL-4.
Briefly, on Day 0, ears of experimental animals were sensitized with FITC. On Day 6, ears of the treatment group animals (0.01%, 0.1%, and 1% treatment groups) were first provided topical treatment of the subject formulations one hour prior to the FITC challenge. Specifically, 20 μL total (10 μL inner ear, and 10 μL outer ear) of topical treatment were massaged all around the ear of each experimental animals prior to FITC epicutaneous application. […] Naïve group animals received no treatment during the experiment. On Day 7, about 24 hours post FITC challenge, ear thickness (in mm) of all animals were measured.
Betamethasone Dipropionate (BMS DPP) topical cream formulations with different concentrations (0.005%, 0.01%, 0.1%, and 1% w/w) were prepared according to Example 3.

[2] = test system: FITC-induced contact hypersensitivity (CHS); test: Topical treatment after FITC challenge in FITC-induced contact hypersensitivity, ear skin thickness; format: in vivo, mice; settings: 4 hrs post FITC challenge
Experimental: Briefly, on Day 0, ears of experimental animals were sensitized with FITC. […] Naïve group animals received no treatment during the experiment. On Day 7, about 24 hours post FITC challenge, ear thickness (in mm) of all animals were measured. […]

[3] = Stability in plasma; format: in vitro ADME
Excerpt: Note that, due to the fact that BMS DPP is unstable in the plasma, the total blood concentration of BMS DPP cannot be determined.

[4] = Plasma PK and skin concentration after topical application of gel-cream to shaved backs of rats; format: in vivo; settings: for Cmax / AUC(0-t): topical or ocular, rat plasma; for Kp at 24 h: skin/plasma
Experimental: In order to assess the effect of the permeation enhancer on API delivery to the skin (topical delivery) and to the plasma (systamic delivery) in vivo, 177.8 mg of the subject topical formulation (177.8 μL of the 1% Compound 1 gel-cream, or about 1.778 mg of Compound 1) was applied to the backs of rats on a 4 cm^2 area of shaved skin. Plasma PK data was obtained during a period of about 24 hours following the topical application. See results in FIG. 9A, and the tables below.
The same experiment was repeated for a topical formulation using Compound 2 as the API. Also see FIG. 9B.

[5] = In vitro release testing in Franz Cells, flux through Tuffryn membrane; format: in vitro ADME
Experimental: (§1) Diffusion assays were performed using Franz Cells and […]® plates, with Tuffryn®, polycarbonate, or polyester membranes, as well as hairless mouse skin. HPLC was employed to analyze in vitro samples.
Specifically, for the in vitro release testing in Franz Cells, vertical diffusion cells were filled with receptor media (phosphate buffer with 2% BSA). The receptor media was then agitated, with the exception of setup and sampling. Temperature is maintained at 32.5±2.0° C. Artificial membrane was then placed on the top of the cell, along with a dosage wafer, the formulation to be evaluated, and a glass sealing cap. A formulation permeability test was run in triplicate. Samples were collected at various programmed intervals, and sampling was an automated process by the system. Fresh media was pushed into the bottom of the cell while simultaneous sampling occurs from the top of the cell. All wells were sampled in a serial manner with the time of each sample recorded by the instrument.
(§2) Generally, flux is calculated by determining the amount of solute that diffuses across a membrane of known surface area per unit time. There are many ways to calculate this value. We measured solute concentration in known volumes of receiver media and calculated the total amount that diffused over the time course of the experiment.

[6] = In vitro release testing in […] plates, flux through polycarbonate membrane; format: in vitro ADME
Experimental: as §1
(§3) For in vitro release testing in […]® plates, a two-compartment well system was used, with an internal well having a membrane as the formulation compartment, and an outer well filled with receptor media (phosphate buffer with 2% BSA). The TRANS WELL® plates were then agitated in a temperature-controlled incubator with shaker. Samples were manually pulled at pre-determined intervals with a pipette. New media was added to the receptor well after each sampling to make up the volume loss.
as §2

[7] = In vitro release testing in […] plates, flux through polyester membrane; format: in vitro ADME
Experimental: as §1, §3, §2

[8] = Optical microscopy examination of the formulations; format: physicochemical; settings: increasing the Transcutol HP content; data not shown
Excerpt: Thus maintaining a saturated solution with the presence of TRANSCUTOL HP™ is expected to increase in vitro flux and increase resultant skin exposures.

[9] = individual rats 1-3, topical 177.8 mg/animal in Formulation A (no Transcutol HP), 24 hr after dose
[10] = individual rats 4-6, topical 177.8 mg/animal in Formulation B (10% Transcutol HP), 24 hr after dose

stability in the plasma [3]: unstable
SMILES: CCC(=O)OCC(=O)[C@@]1(OC(=O)CC)[C@@H](C)C[C@H]2[C@@H]3CCC4=CC(=O)C=C[C@]4(C)[C@@]3(F)[C@@H](O)C[C@@]21C [BMS DPP, Betamethasone Dipropionate]
reduced ear skin thickness ([1]; Study 1, 0.01%): 77% | reduced ear skin thickness ([1]; Study 1, 0.1%): 93% | reduced ear skin thickness ([1]; Study 1, 1%): 95% | reduced ear skin thickness ([1]; Study 2, 0.005%): 61% | reduced ear skin thickness ([1]; Study 2, 0.01%): 73% | reduced ear skin thickness ([1]; Study 2, 0.1%): 93% | reduced ear skin thickness, effect ([1]; combined Study 1 and 2, 0.005%): 61% | reduced ear skin thickness, effect ([1]; combined Study 1 and 2, 0.01%): 75% | reduced ear skin thickness, effect ([1]; combined Study 1 and 2, 0.1%): 93% | reduced ear skin thickness, effect ([1]; combined Study 1 and 2, 1%): 95% | reduced ear skin thickness ([2]; Study 1, 0.1%): 95% | reduced ear skin thickness ([2]; Study 1, 1%): 96% | reduced ear skin thickness ([2]; Study 2, 0.01%): 92% | reduced ear skin thickness ([2]; Study 2, 0.1%): 96% | reduced ear skin thickness, effect ([2]; combined Study 1 and 2, 0.01%): 92% | reduced ear skin thickness, effect ([2]; combined Study 1 and 2, 0.1%): 95% | reduced ear skin thickness, effect ([2]; combined Study 1 and 2, 1%): 96%

Cmax ([4]; rat, plasma, 177.8 mg, 177.8 mg 1% gel-cream topical on 4 cm^2, 10% Transcutol HP): 70.7 ng/mL | Cmax ([4]; rat, plasma, 177.8 mg, 177.8 mg 1% gel-cream topical on 4 cm^2, no permeation enhancer): 11.4 ng/mL | AUC(0-t) ([4]; rat, plasma, 177.8 mg, 177.8 mg 1% gel-cream topical, 10% Transcutol HP): 392 ng·h/mL | AUC(0-t) ([4]; rat, plasma, 177.8 mg, 177.8 mg 1% gel-cream topical, no permeation enhancer): 62.4 ng·h/mL | concentration at 24 h ([4]; rat, skin, topical, 1.778 mg, rat skin, 177.8 mg 1% gel-cream topical, 10% Transcutol HP, read-out: Skin conc. 24 hr): 25000 ng/g | concentration at 24 h ([4]; rat, skin, topical, 1.778 mg, rat skin, 177.8 mg 1% gel-cream topical, no permeation enhancer, read-out: Skin conc. 24 hr): 5340 ng/g | Ratio Transcutol HP/no enhancer, Plasma AUC0-t ([4]; rat, topical): 6.28 | Ratio Transcutol HP/no enhancer, Skin conc. 24 hr ([4]; rat, topical): 4.67 | Ratio Transcutol HP/no enhancer, Flux Franz Cells Tuffryn membrane [5]: 1.20 | Flux Franz Cells Tuffryn membrane ([5]; Transcutol 10%): 7.64 | Flux Franz Cells Tuffryn membrane ([5]; no permeation enhancer): 6.34 | Ratio Transcutol HP/no enhancer, Flux TRANSWELL plate Polycarbonate membrane [6]: 1.35 | Flux TRANSWELL plate Polycarbonate membrane ([6]; Transcutol 10%): 11.46 | Flux TRANSWELL plate Polycarbonate membrane ([6]; no permeation enhancer): 8.52 | Ratio Transcutol HP/no enhancer, Flux TRANSWELL Plate polyester membrane [7]: 1.33 | Flux TRANSWELL Plate polyester membrane ([7]; Transcutol 10%): 5.42 | Flux TRANSWELL Plate polyester membrane ([7]; no permeation enhancer): 4.09 | amount solubilized in the gel-cream formulation [8]: solubilizes a greater amount
SMILES: CC[C@@H]1C[C@H](NS(=O)(=O)C2CC2)C[C@@H]1c1nnc2cnc3[nH]ccc3n12 [Compound 1, N-((1S,3R,4S)-3-ethyl-4-(6H-pyrrolo[2,3-e][1,2,4]triazolo[4,3-a]pyrazin-1-yl)cyclopentyl)cyclopropanesulfonamide]

Plasma Conc. [4, 9]: 0.00 ng/mL | Skin Conc. [4, 9]: 2393 ng/g and 5908 ng/g and 7728 ng/g | Skin/Plasma Ratio ([4]; individual rats 4-6, Formulation B, 24 hr after dose): 11076 | Plasma Conc. [4, 10]: 4.46 ng/mL and 2.87 ng/mL and 0.00 ng/mL | Skin Conc. [4, 10]: 31734 ng/g and 16020 ng/g | concentration at 24 h ([4]; rat, plasma, topical, 177.8 mg, mean of rats 1-3, Formulation A, 24 hr after dose, read-out: Plasma Conc., Mean): 0 ng/mL | concentration at 24 h ([4]; rat, plasma, topical, 177.8 mg, mean of rats 4-6, Formulation B, 24 hr after dose, read-out: Plasma Conc., Mean): 2.44 ng/mL | concentration at 24 h ([4]; rat, plasma, topical, 177.8 mg/animal, individual rats 1-3, topical 177.8 mg/animal in Formulation A (no Transcutol HP), 24 hr after dose, read-out: Plasma Conc.): 0 ng/mL | concentration at 24 h ([4]; rat, skin, topical, 177.8 mg, mean of rats 1-3, Formulation A, 24 hr after dose, read-out: Skin Conc., Mean): 5340 ng/g | concentration at 24 h ([4]; rat, skin, topical, 177.8 mg, mean of rats 4-6, Formulation B, 24 hr after dose, read-out: Skin Conc., Mean): 25000 ng/g | concentration at 24 h ([4]; rat, skin, topical, 177.8 mg/animal, individual rats 4-6, topical 177.8 mg/animal in Formulation B (10% Transcutol HP), 24 hr after dose, read-out: Skin Conc.): 27100 ng/g | Kp at 24 h ([4]; rat, topical, 177.8 mg, individual rats 4-6, Formulation B, 24 hr after dose, read-out: Skin/Plasma Ratio): 6080 | Kp at 24 h ([4]; rat, topical, 177.8 mg, mean, Formulation B, 24 hr after dose, read-out: Skin/Plasma Ratio, Mean): 8580
SMILES: CC[C@@H]1CN(C(=O)NCC(F)(F)F)C[C@@H]1c1cnc2cnc3[nH]ccc3n12 [Compound 2, (3S,4R)-3-ethyl-4-(3H-imidazo[1,2-a]pyrrolo[2,3-e]pyrazin-8-yl)-N-(2,2,2-trifluoroethyl)pyrrolidine-1-carboxamide]
